Earlier results, collected in publication PMC10544575, “Inhibitory mechanism of vortioxetine on CYP450 enzymes in human and rat liver microsomes” (Frontiers in Pharmacology, 2023).

Columns and labels:
Conditions in all cases: in vitro; ref Wójcikowski et al., 2020; cited from earlier work
CYP1A2 = system: CYP1A2; design: method as in Wójcikowski et al., 2020
CYP3A4 = CYP3A4 (Homo sapiens, UniProt P08684); design: 0.20 mg/mL HLMs or 0.20 mg/mL RLMs; from tissue; host or cells: human liver microsomes; method as in Wójcikowski et al., 2020
Sequence of CYP3A4 (P08684 whole entry): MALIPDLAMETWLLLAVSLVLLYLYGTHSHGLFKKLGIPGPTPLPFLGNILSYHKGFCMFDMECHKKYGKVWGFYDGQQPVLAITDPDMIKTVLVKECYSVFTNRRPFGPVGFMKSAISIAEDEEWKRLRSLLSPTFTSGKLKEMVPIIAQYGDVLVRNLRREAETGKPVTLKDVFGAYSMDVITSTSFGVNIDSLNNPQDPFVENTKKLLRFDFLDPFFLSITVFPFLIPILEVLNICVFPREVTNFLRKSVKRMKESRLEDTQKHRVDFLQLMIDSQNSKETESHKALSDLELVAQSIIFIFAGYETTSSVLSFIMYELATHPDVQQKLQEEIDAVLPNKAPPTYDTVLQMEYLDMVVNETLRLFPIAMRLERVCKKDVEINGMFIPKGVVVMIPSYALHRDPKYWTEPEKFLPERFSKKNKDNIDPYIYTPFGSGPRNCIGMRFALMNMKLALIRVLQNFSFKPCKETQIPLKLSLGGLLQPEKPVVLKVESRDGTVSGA

CYP2D6 = CYP2D6 (Homo sapiens, UniProt P10635); design: 0.20 mg/mL HLMs or 0.20 mg/mL RLMs; from tissue; host or cells: human liver microsomes; method as in Wójcikowski et al., 2020
Sequence of CYP2D6 (P10635 whole entry): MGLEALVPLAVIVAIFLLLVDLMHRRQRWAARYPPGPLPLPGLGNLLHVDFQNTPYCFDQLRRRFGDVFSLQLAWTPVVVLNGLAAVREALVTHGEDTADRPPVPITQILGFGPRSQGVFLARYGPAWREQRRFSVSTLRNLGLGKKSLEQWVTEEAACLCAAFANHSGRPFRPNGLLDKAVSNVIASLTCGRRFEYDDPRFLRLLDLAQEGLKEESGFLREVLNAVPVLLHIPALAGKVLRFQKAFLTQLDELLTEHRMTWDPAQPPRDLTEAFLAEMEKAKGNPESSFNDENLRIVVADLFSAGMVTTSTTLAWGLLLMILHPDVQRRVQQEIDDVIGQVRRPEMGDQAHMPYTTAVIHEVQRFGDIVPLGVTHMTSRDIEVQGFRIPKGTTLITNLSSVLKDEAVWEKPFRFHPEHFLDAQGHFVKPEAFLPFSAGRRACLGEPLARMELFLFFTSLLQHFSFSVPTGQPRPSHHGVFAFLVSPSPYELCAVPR

CN1CC2c3ccccc3Oc3ccc(Cl)cc3C2C1 (stereo not drawn) [asenapine]
significantly inhibited: inhibition of CYP1A2 (CYP1A2) | inhibition of CYP3A4 (CYP3A4) | inhibition of CYP2D6 (CYP2D6)
